Converted amounts (≈) assume the structure as drawn.
Key:
[1] = test system: CC(=O)OCC1=C(C(=O)O)N2C(=O)[C@@H](NC(=O)Cc3cccs3)[C@H]2SC1; assay: purified protein, by the assay type; conditions: other: VIM-2, substrate hydrolysis, 10 mM HEPES pH 7.5, 25 °C
[2] = test system: O=C(Cc1cccs1)N[C@@H]1C(=O)N2C(C(=O)O)=C(/C=C/c3ccc([N+](=O)[O-])cc3[N+](=O)[O-])CS[C@H]12; assay: purified protein, by the assay type; conditions: other: VIM-2, substrate hydrolysis, 10 mM HEPES pH 7.5, 25 °C
[3] = test system: C[C@@H](O)[C@H]1C(=O)N2C(C(=O)O)=C(SCCN=CN)C[C@H]12; assay: purified protein, by the assay type; conditions: other: VIM-2, substrate hydrolysis, 10 mM HEPES pH 7.5, 25 °C
VIM-2 = VIM-2 (Escherichia coli, UniProt Q5U7L7); assay: BTZ inhibition kinetics of nitrocefin hydrolysis by VIM-2; type: biochemical, P. aeruginosa; conditions: for Ki: overall dissociation constant from vs, slow binding model
MBLs = assay: Inhibitory activity toward MBLs after prolonged exposure to oxidative conditions; type: biochemical; conditions: assays in solution; data not shown
VIM-24 [4] = biological target: T1, VIM-24 (Escherichia coli, UniProt Q5U7L7, R205L); assay: BTZ inhibition kinetics of nitrocefin hydrolysis by VIM-24; type: biochemical, Klebsiella pneumoniae; conditions: for Ki: overall dissociation constant from vs, slow binding model
VIM-24 [5] = biological target: T1, VIM-24; type: biochemical, Klebsiella pneumoniae; conditions: VIM-24; substrate hydrolysis, 10 mM HEPES pH 7.5, 25 °C
[6] = test system: E. coli DH10B pBCSK(−) producing R228M; assay: MIC by agar dilution, E. coli DH10B pBCSK; type: cell-based; conditions: Escherichia coli
E. coli pBC SK(−) = assay: MIC by agar dilution, E. coli DH10B with empty pBC SK; type: cell-based; conditions: Escherichia coli
[7] = test system: E. coli DH10B pBCSK(−) producing VIM-2 (228R); assay: MIC by agar dilution, E. coli DH10B pBCSK; type: cell-based; conditions: Escherichia coli
[8] = test system: E. coli DH10B pBCSK(−) producing R228Q; assay: MIC by agar dilution, E. coli DH10B pBCSK; type: cell-based; conditions: Escherichia coli
[9] = test system: E. coli DH10B pBCSK(−) producing R228Y; assay: MIC by agar dilution, E. coli DH10B pBCSK; type: cell-based; conditions: Escherichia coli
[10] = test system: E. coli DH10B pBCSK(−) producing R228P; assay: MIC by agar dilution, E. coli DH10B pBCSK; type: cell-based; conditions: Escherichia coli
[11] = test system: VIM-2-producing P. aeruginosa; assay: Imipenem MIC of the clinical isolate, VIM-2-producing P. aeruginosa; type: cell-based, Pseudomonas aeruginosa
[12] = test system: E. coli DH10B pBCSK(−) producing R228X (other variants); assay: MIC by agar dilution, E. coli DH10B pBCSK; type: cell-based; conditions: Escherichia coli, R228X: range of MIC values of the other variants; MHA
[13] = test system: E. coli DH10B pBCSK(−) producing R228K; assay: MIC by agar dilution, E. coli DH10B pBCSK; type: cell-based; conditions: Escherichia coli
[14] = test system: VIM-24-producing K. pneumoniae; assay: Imipenem MIC of the clinical isolate, VIM-24-producing K. pneumoniae; type: cell-based; conditions: Klebsiella pneumoniae, read-out: imipenem MIC, VIM-24-producing K. pneumoniae
[15] = test system: E. coli DH10B pBCSK(−) producing VIM-24 (R228L); assay: MIC by agar dilution, E. coli DH10B pBCSK; type: cell-based; conditions: Escherichia coli
[16] = rate constant for formation of E*I

Compound | Ki (VIM-2) [nM] | Ki (VIM-24 [4]) [nM] | kcat (VIM-24 [5]) [s⁻¹] | MIC ([6]; MHA) [µg/mL] | MIC (E. coli pBC SK(−); MHA) [µg/mL] | MIC ([7]; MHA) [µg/mL] | MIC ([8]; MHA) [µg/mL] | MIC ([9]; MHA) [µg/mL] | MIC ([10]; MHA) [µg/mL] | MIC [12] [µg/mL] | MIC ([13]; MHA) [µg/mL] | MIC ([15]; MHA) [µg/mL] | also measured
VIM-2 (Escherichia coli) | – | – | – | – | – | – | – | – | – | – | – | – | Km [1]: 17 ± 2 µM; kcat [1]: 168 ± 8 s⁻¹; kcat/Km [1]: 9.8e+06 M⁻¹ s⁻¹; Km [2]: 13 ± 1 µM; kcat [2]: 430 ± 20 s⁻¹; kcat/Km [2]: 3.3e+07 M⁻¹ s⁻¹; Km [3]: 12 ± 1 µM; kcat [3]: 45 ± 1 s⁻¹; kcat/Km [3]: 3.6e+06 M⁻¹ s⁻¹
O=C(O)[C@@H]1CS[C@H]2CS[C@H](CS)N21 [L-CS319] | 40 ± 10 | 120 ± 20 | – | – | – | – | – | – | – | – | – | – | effect of prolonged exposure to oxidative conditions on inhibitory activity (MBLs): abolishes the inhibitory activity
O=C(O)[C@H]1CS[C@@H]2CS[C@@H](CS)N12 [D-CS319] | 180 ± 20 | 640 ± 10 | – | – | – | – | – | – | – | – | – | – | k2 (VIM-2; [16]): (0.01 ± 1) × 10^−3 s^−1; k−2 (VIM-24 [4]; rate constant for breakdown of E*I): (0.004 ± 1) × 10^−3 s^−1; k2 (VIM-24 [4]; [16]): (0.07 ± 4) × 10^−3 s^−1
C[C@@H](O)[C@H]1C(=O)N2C(C(=O)O)=C(SCCN=CN)C[C@H]12 [imipenem] | – | – | 8.8 ± 0.3 | 2 (≈ 6.68 µM) | 0.25 (≈ 0.835 µM) | 0.5 (≈ 1.67 µM) | 4 (≈ 13.4 µM) | 1 (≈ 3.34 µM) | 0.5 (≈ 1.67 µM) | 0.25 to 1 (≈ 0.835 to 3.34 µM) | 0.25 (≈ 0.835 µM) | 0.5 (≈ 1.67 µM) | Km (VIM-24 [5]): 5 ± 0.7 µM; MIC ([6]; MHA + 5 μM EDTA): 1 µg/mL; MIC ([6]; MHA + 250 μM Zn^2+): 4 µg/mL; MIC (E. coli pBC SK(−); MHA + 5 μM EDTA): ≤ 0.125 µg/mL; MIC (E. coli pBC SK(−); MHA + 250 μM Zn^2+): 0.25 µg/mL; MIC ([7]; MHA + 5 μM EDTA): 0.5 µg/mL; MIC ([7]; MHA + 250 μM Zn^2+): 1 µg/mL; MIC ([8]; MHA + 5 μM EDTA): 4 µg/mL; MIC ([8]; MHA + 250 μM Zn^2+): > 4 µg/mL; MIC ([9]; MHA + 5 μM EDTA): 1 µg/mL; MIC ([9]; MHA + 250 μM Zn^2+): 1 µg/mL; MIC ([10]; MHA + 5 μM EDTA): ≤ 0.125 µg/mL; MIC ([10]; MHA + 250 μM Zn^2+): 0.25 µg/mL; MIC ([11]; Pseudomonas aeruginosa, read-out: imipenem MIC): 32 µg/mL; imipenem MIC ([11]; VIM-2 harboring P. aeruginosa clinical isolate): 32 µg/mL; MIC ([13]; MHA + 5 μM EDTA): 0.25 µg/mL; MIC ([13]; MHA + 250 μM Zn^2+): 0.25 µg/mL; MIC [14]: 2 µg/mL; MIC ([15]; MHA + 5 μM EDTA): 0.5 µg/mL; MIC ([15]; MHA + 250 μM Zn^2+): 1 µg/mL
C[C@H]1[C@H](NC(=O)/C(=N\OC(C)(C)C(=O)O)c2csc(N)n2)C(=O)N1S(=O)(=O)O [aztreonam] | – | – | – | ≤ 0.125 | ≤ 0.125 | ≤ 0.125 | ≤ 0.125 | ≤ 0.125 | ≤ 0.125 | ≤ 0.125 | ≤ 0.125 | ≤ 0.125 | –
CC(=O)OCC1=C(C(=O)O)N2C(=O)[C@@H](NC(=O)Cc3cccs3)[C@H]2SC1 [cephalothin] | – | – | 150 ± 9 | 256 (≈ 646 µM) | 8 (≈ 20.2 µM) | 256 (≈ 646 µM) | 1020 (≈ 2580 µM) | 256 (≈ 646 µM) | 16 (≈ 40.4 µM) | 64 to 256 (≈ 161 to 646 µM) | 16 (≈ 40.4 µM) | 256 (≈ 646 µM) | –
